Measured values as given in PubChem BioAssay (NCI).
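Results reflect a 48-hour exposure of cells in 96-well plates to compound at five concentrations. TGI marks complete inhibition of growth.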

Assays:
Experiment in all cases: DTP human tumour cell line panel, 48 h
DU-145 prostate = system: DU-145 prostate
NCI-H23 lung = system: NCI-H23 lung
SK-MEL-28 melanoma = system: SK-MEL-28 melanoma
IGROV1 ovarian = system: IGROV1 ovarian
OVCAR-5 ovarian = system: OVCAR-5 ovarian
SNB-19 CNS = system: SNB-19 CNS
NCI/ADR-RES ovarian = system: NCI/ADR-RES ovarian
NCI-H226 lung = system: NCI-H226 lung
COLO 205 colon = system: COLO 205 colon
NCI-H460 lung = system: NCI-H460 lung
HCC-2998 colon = system: HCC-2998 colon
A549 NSCLC = system: A549 NSCLC
U251 CNS = system: U251 CNS
T-47D breast = system: T-47D breast
HOP-62 NSCLC = system: HOP-62 NSCLC
EKVX NSCLC = system: EKVX NSCLC
PC-3 prostate = system: PC-3 prostate
SNB-75 CNS = system: SNB-75 CNS
SW-620 colon = system: SW-620 colon
TK-10 renal = system: TK-10 renal
ACHN renal = system: ACHN renal
NCI-H522 lung = system: NCI-H522 lung
MDA-N = system: MDA-N
OVCAR-3 ovarian = system: OVCAR-3 ovarian
LOX IMVI melanoma = system: LOX IMVI melanoma
CCRF-CEM leukemia = system: CCRF-CEM leukemia
MCF7 breast = system: MCF7 breast
RPMI-8226 leukemia = system: RPMI-8226 leukemia
HOP-92 NSCLC = system: HOP-92 NSCLC
UACC-257 melanoma = system: UACC-257 melanoma
BT-549 breast = system: BT-549 breast
SK-MEL-2 melanoma = system: SK-MEL-2 melanoma
CAKI-1 renal = system: CAKI-1 renal
MDA-MB-435 = system: MDA-MB-435
K-562 leukemia = system: K-562 leukemia
SK-MEL-5 melanoma = system: SK-MEL-5 melanoma
SF-539 CNS = system: SF-539 CNS
SF-268 CNS = system: SF-268 CNS
HS 578T breast = system: HS 578T breast
SN12C renal = system: SN12C renal
RXF 393 renal = system: RXF 393 renal
MALME-3M melanoma = system: MALME-3M melanoma
OVCAR-8 ovarian = system: OVCAR-8 ovarian
KM12 colon = system: KM12 colon
M14 melanoma = system: M14 melanoma
MOLT-4 leukemia = system: MOLT-4 leukemia
UO-31 renal = system: UO-31 renal
HT29 colon = system: HT29 colon
MDA-MB-231 breast = system: MDA-MB-231 breast
OVCAR-4 ovarian = system: OVCAR-4 ovarian
SK-OV-3 ovarian = system: SK-OV-3 ovarian
SF-295 CNS = system: SF-295 CNS
786-0 renal = system: 786-0 renal
HCT-15 colon = system: HCT-15 colon
HCT-116 colon = system: HCT-116 colon
UACC-62 melanoma = system: UACC-62 melanoma

Measured: TGI

C=CCn1c(=O)c(C)cn(COCCO)c1=O
not listed: OVCAR-4 ovarian | SK-OV-3 ovarian | SF-295 CNS | 786-0 renal | HCT-15 colon | HCT-116 colon | UACC-62 melanoma
> 100 µM: all other assays above

CCOC(=O)c1ccc(-n2[nH]nc(C(N)=O)c2=O)cc1
not listed: LOX IMVI melanoma | HOP-92 NSCLC | SF-539 CNS
> 100 µM: all other assays above
